One assay concerns the target T1, SMARCA4 (Homo sapiens, UniProt P51532).
T1 construct: endogenous in cells
Put plainly: Cellular degradation assay, SMARCA4 (Table 1). Type of assay: cell-based.

For a further assay, the target named is T2, SMARCA2 (Homo sapiens, UniProt P51531).
T2 construct: endogenous in cells
The experiment in a line: SMARCA2 Cellular Degradation Assay (Western blot analysis on Jess platform). Type of assay: cell-based. The conditions noted are these: for DC50 / Dmax: cellular degradation; for Fold Selectivity SMARCA4/2: ratio DC50 SMARCA4 / DC50 SMARCA2. As to the method: SMARCA2 Cellular Degradation Assay
Western Blot Analysis for SMARCA2 Degradation
Frozen cell pellets were thawed on ice and resuspended in RIPA lysis buffer (Millipore, Cat. No. 20-188) supplemented with 0.2% SDS (Fisher Scientific, Cat. No. 24730020), 200 mM β-glycerophosphate (Alfa Aesar, Cat. No. J62121), 500 mM NaF (Rigaku, Cat. No. 1008046), protease inhibitor (1 tablet per 10 mL, Sigma, Cat. No. 11836170001), 250 U/μL benzonase (Millipore, Cat. No. 71206), 200 mM sodium orthovanadate (FivePhoton, Cat. No. ActVO-4), and 100 mM PMSF (Sigma, Cat. No. 10837091001). 50 μL lysis buffer was used to lyse each pellet containing 5×10E5-1×10E6 live cells extracted from tumors. Lysates were centrifuged for 10 mins at 20,817×g and lysate supernatants were saved for further analysis. Protein levels were determined by the BCA Assay performed according to manufacturer's protocol (EMD Millipore, Cat. No. 71285-3). Samples were evaluated by Western blot analysis on the Jess Platform (ProteinSimple). Lysates were diluted with complete lysis buffer (as described above) and 5 μg of total proteins were loaded onto each capillary. Samples were prepared using the ProteinSimple EZ Standard Pack 1 (Cat. No. PS-ST01EZ-8; containing tubes with powdered (5×) Fluorescent Master Mix, DTT, and biotinylated ladder) and run using the ProteinSimple 25-Capillary Cartridge kit (Cat. No. SM-W004; containing 25-capillary cartridge Wash reagent, and 10× Sample Buffer reagent), the ProteinSimple Anti-Rabbit HRP Detection Module for Jess (Cat. No. DM-001; containing Antibody Diluent, anti-rabbit secondary antibody, Luminol-S, Peroxide, and Streptavidin-HRP), and the ProteinSimple Anti-Mouse NIR Detection Module for Jess (Cat. No. DM-009; containing Antibody Diluent, anti-mouse NIR secondary antibody, and Streptavidin-NIR) as the following describes. The DTT was reconstituted with 40 μL water to make a 400 mM solution, 20 μL of the DTT solution plus 20 μL of 10× Sample Buffer were added to reconstitute the 5× Fluorescent Master Mix, and 20 μL of H2O was used to reconstitute the biotinylated ladder. For each sample, lysate (4 μL) was combined with 5× Fluorescent Master Mix (1 μL) and heated at 95° C. for 5 minutes. Samples were cooled and stored on ice. Primary antibody solution was made using anti-SMARCA2 antibody (Abcam, Cat. No. 240648, 1:10) and anti-beta-Actin antibody (Cell Signaling Technology, Cat. No. 3700S, 1:25) in antibody diluent. The 25-capillary cartridges were prepared per standard ProteinSimple protocol with each sample in a column. For the biotinylated ladder in column 1, the following were added: 5 µL of ladder sample in Row A, 10 μL of antibody diluent in Rows B and C, 10 μL of Streptavidin-NIR in Row D, and 15 μL of a 50:50 Luminol-s/Peroxide solution in Row E. For each test sample (columns 2-25), the following were added per column: 5 μL of sample in Row A, 10 μL of antibody diluent in Row B, 10 μL of primary antibody solution in Row C, 10 μL of secondary antibody in Row D, and 15 μL of a 50:50 Luminol-S/Peroxide solution in Row E. 500 μL wash buffer was added to the wash buffer wells in the cartridge and cartridge was spun at 1000×g for 5 minutes prior to loading into the Jess. Samples were run using the Chemiluminescence and Fluorescence immunoassays in the ProteinSimple Compass for SimpleWestern program (version 5.0.0). After running, SMARCA2, actin, and background curves were identified in the Compass software; note that in the Compass software, the electropherograms are also visualized as bands for comparison with standard Western blot outputs. The electropherogram area reading for each sample curve was normalized to that of the corresponding actin curve per column following background (capillary background) subtraction using the following equation: […]
Following normalization, the percentage of SMARCA2 remaining per sample relative to the vehicle control was calculated as follows: […]
Background: Immunoblotting shows a protein as a band on a membrane.

SMILES strings stand for the structures.

T2 sequence (P51531 whole entry, species assumed): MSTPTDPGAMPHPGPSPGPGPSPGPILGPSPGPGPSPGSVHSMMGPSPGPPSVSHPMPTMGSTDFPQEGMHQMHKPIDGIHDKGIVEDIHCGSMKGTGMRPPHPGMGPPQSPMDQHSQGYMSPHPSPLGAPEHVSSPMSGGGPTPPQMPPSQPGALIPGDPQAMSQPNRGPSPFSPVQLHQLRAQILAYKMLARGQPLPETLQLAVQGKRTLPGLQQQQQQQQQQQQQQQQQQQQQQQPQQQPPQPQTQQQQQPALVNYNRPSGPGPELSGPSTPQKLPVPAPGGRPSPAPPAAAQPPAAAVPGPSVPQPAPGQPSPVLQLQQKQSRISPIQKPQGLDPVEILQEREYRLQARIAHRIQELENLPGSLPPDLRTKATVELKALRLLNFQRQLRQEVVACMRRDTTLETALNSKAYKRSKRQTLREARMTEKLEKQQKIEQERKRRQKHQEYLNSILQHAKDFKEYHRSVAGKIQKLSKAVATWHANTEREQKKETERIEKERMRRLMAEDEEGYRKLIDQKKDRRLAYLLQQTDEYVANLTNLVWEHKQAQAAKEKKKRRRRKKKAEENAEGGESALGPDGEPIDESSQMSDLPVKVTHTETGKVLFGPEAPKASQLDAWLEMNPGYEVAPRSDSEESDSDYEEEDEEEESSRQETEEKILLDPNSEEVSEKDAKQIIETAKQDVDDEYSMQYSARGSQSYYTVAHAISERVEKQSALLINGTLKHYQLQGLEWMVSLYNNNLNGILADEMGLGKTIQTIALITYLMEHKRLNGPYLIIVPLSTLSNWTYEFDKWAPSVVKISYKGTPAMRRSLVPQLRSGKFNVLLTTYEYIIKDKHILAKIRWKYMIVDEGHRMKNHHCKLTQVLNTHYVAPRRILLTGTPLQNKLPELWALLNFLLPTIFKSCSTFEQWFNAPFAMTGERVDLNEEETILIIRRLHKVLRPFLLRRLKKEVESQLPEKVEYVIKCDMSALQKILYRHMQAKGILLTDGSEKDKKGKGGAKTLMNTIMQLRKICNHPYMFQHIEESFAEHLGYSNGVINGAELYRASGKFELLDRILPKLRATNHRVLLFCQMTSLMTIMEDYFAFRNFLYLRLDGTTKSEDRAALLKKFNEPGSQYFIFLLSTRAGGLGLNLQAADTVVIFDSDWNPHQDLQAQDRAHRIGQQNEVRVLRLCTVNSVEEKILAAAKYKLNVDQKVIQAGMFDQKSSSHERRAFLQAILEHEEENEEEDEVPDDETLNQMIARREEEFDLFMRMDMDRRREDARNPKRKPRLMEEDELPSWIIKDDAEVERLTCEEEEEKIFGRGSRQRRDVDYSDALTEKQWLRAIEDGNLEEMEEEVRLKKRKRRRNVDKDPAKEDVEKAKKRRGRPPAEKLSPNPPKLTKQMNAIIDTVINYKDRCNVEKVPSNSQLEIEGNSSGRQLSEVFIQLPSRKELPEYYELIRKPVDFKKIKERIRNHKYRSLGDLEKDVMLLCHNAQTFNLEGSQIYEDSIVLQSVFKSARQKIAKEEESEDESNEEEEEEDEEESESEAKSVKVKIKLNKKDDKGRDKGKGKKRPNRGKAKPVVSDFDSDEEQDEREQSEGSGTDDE
T1 sequence (P51532 whole entry, species assumed): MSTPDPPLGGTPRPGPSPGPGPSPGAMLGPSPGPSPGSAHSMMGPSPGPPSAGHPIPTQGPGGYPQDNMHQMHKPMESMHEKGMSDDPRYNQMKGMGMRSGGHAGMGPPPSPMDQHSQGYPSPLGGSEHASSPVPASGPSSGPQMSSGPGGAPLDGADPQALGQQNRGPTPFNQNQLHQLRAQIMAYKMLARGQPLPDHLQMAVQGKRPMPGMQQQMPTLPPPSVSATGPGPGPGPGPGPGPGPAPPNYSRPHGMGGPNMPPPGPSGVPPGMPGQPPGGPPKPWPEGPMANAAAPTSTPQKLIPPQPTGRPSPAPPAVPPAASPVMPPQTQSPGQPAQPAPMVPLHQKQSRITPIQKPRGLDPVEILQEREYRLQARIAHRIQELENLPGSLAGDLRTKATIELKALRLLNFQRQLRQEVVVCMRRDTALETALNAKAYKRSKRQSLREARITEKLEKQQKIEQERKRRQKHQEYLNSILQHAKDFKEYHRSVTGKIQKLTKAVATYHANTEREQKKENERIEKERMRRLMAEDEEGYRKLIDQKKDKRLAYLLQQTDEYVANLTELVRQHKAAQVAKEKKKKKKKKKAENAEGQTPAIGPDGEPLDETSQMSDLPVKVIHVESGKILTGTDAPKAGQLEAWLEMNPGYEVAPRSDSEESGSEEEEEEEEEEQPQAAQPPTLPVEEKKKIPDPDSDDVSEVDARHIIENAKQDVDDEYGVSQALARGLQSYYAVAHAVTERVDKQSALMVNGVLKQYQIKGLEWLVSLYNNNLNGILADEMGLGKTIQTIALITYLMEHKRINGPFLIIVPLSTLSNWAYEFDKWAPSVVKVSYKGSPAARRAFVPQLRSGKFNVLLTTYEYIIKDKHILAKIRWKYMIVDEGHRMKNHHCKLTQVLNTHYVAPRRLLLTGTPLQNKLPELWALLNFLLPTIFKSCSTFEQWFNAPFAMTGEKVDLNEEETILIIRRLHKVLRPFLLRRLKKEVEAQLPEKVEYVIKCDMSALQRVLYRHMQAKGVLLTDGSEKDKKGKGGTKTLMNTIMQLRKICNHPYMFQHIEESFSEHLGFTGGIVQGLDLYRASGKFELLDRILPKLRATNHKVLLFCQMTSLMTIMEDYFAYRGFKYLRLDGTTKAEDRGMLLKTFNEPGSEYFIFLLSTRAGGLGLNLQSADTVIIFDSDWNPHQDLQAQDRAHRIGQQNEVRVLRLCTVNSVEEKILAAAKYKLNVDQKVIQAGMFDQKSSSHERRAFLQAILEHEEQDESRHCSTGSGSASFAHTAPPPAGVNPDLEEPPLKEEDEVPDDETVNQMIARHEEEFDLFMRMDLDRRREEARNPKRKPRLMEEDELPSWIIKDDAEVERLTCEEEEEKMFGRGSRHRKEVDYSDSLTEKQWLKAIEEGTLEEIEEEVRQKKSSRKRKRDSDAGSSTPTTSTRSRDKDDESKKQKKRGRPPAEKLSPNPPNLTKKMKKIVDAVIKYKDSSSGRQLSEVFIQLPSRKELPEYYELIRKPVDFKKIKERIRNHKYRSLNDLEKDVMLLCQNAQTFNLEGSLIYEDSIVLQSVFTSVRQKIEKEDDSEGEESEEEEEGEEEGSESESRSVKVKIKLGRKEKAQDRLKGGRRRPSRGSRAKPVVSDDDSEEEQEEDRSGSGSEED

As usually defined, the Dmax is the greatest extent of degradation seen. Lower therefore signals a partial loss of target. By DC50 is commonly meant the midpoint of the concentration-degradation curve. A high value points to degradation only at high concentration. On to `O=C1CC[C@H](c2ccc(N3CCC(CN4CC[C@H]5[C@H](CCN5C(=O)C5(c6ccccc6)CCN(c6cnnc(-c7ccccc7O)c6)CC5)C4)CC3)cc2)C(=O)N1` (mixture of isomers) [Example 155, (3R)-3-[4-(4-{[(3aRS,7aSR)-1-{1-[6-(2-hydroxyphenyl)pyridazin-4-yl]-4-phenylpiperidine-4-carbonyl}-octahydro-1H-pyrrolo[3,2-c]pyridin-5-yl]methyl}piperidin-1-yl)phenyl]piperidine-2,6-dione], for which, at SMARCA4, the Dmax turned out to be 51.5%. Further, at SMARCA2, the half-maximal degradation concentration (DC50) turned out to be 13.7 nM, the Dmax was 75% and the “Fold Selectivity SMARCA4/2” value is 730.

For the molecule `CN(C(=O)C1(Oc2ccccc2)CCN(c2cnnc(-c3ccccc3O)c2)CC1)C1CCN(CC2CCN(c3ccc([C@H]4CCC(=O)NC4=O)cc3)CC2)C2(CC2)C1` (mixture of isomers) [Example 168, N-[(7RS)-4-[(1-{4-[(3R)-2,6-dioxopiperidin-3-yl]phenyl}piperidin-4-yl)methyl]-4-azaspiro[2.5]octan-7-yl]-1-[6-(2-hydroxyphenyl)pyridazin-4-yl]-N-methyl-4-phenoxypiperidine-4-carboxamide], on SMARCA4, half-maximal degradation (DC50) was put at 113 nM and the Dmax amounted to 77.3%. Also, on SMARCA2, the DC50 amounted to 18.4 nM, the Dmax worked out at 90.6% and the “Fold Selectivity SMARCA4/2” value amounted to 6.

For the molecule `O=C1CCC(NC(=O)c2cc(N3CCN(C(=O)C4(c5ccccc5)CCN(c5cnnc(-c6ccccc6O)c5)CC4)CC3)ccn2)C(=O)N1` (racemic) [Example 1, rac-N-[(3r)-2,6-dioxopiperidin-3-yl]-4-(4-{1-[6-(2-hydroxyphenyl)pyridazin-4-yl]-4-phenylpiperidine-4-carbonyl}piperazin-1-yl)pyridine-2-carboxamide], the Dmax at SMARCA4 turned out to be 13%. Also, at SMARCA2, the Dmax is 35.2% and the “Fold Selectivity SMARCA4/2” value was determined as 1.

At SMARCA4, `C[C@H](Oc1ccc(C2CCC(=O)NC2=O)cc1)C1CCN(C(=O)C2(c3ccccc3)CCN(c3cnnc(-c4ccccc4O)c3)CC2)CC1` (mixture of isomers) [Example 2, (3RS)-3-{4-[(1S)-1-(1-{1-[6-(2-hydroxyphenyl)pyridazin-4-yl]-4-phenylpiperidine-4-carbonyl}piperidin-4-yl)ethoxy]phenyl}piperidine-2,6-dione] returned a Dmax of 22.1%. Also, at SMARCA2, the Dmax turned out to be 53.5% and the “Fold Selectivity SMARCA4/2” value was found to be 1.

On to `C[C@@H](Oc1ccc(C2CCC(=O)NC2=O)cc1)C1CCN(C(=O)C2(c3ccccc3)CCN(c3cnnc(-c4ccccc4O)c3)CC2)CC1` (mixture of isomers) [Example 3, (3RS)-3-{4-[(1R)-1-(1-{1-[6-(2-hydroxyphenyl)pyridazin-4-yl]-4-phenylpiperidine-4-carbonyl}piperidin-4-yl)ethoxy]phenyl}piperidine-2,6-dione], for which, at SMARCA4, the Dmax was found to be 17.5%. On SMARCA2, the Dmax turned out to be 54.2% and the “Fold Selectivity SMARCA4/2” value was found to be 1.

As for `O=C1CCC(c2ccc(OC3CCN(C(=O)C4(c5ccccc5)CCN(c5cnnc(-c6ccccc6O)c5)CC4)CC3)cc2)C(=O)N1` (racemic) [Example 4, rac-(3R)-3-{4-[(1-{1-[6-(2-hydroxyphenyl)pyridazin-4-yl]-4-phenylpiperidine-4-carbonyl}piperidin-4-yl)oxy]phenyl}piperidine-2,6-dione], the Dmax at SMARCA4 was 9.4%; at SMARCA2 it was 16.4%. Further, at SMARCA2, the “Fold Selectivity SMARCA4/2” value is on record as 1.

In the case of `O=C1CCC(c2ccc(OCC3CCN(C(=O)C4(c5ccccc5)CCN(c5cnnc(-c6ccccc6O)c5)CC4)CC3)cc2)C(=O)N1` (racemic) [Example 5, rac-(3R)-3-{4-[(1-{1-[6-(2-hydroxyphenyl)pyridazin-4-yl]-4-phenylpiperidine-4-carbonyl}piperidin-4-yl)methoxy]phenyl}piperidine-2,6-dione], on SMARCA4, the Dmax came to 22.6%. At SMARCA2, the DC50 came out at 463 nM, the Dmax was 59.8% and the “Fold Selectivity SMARCA4/2” value is 21.62.

Take `O=C1CCC(c2ccc(N3CCC(CN4CCN(C(=O)C5(c6ccccc6)CCN(c6cnnc(-c7ccccc7O)c6)CC5)CC4)CC3)cc2)C(=O)N1` (racemic) [Example 6, rac-(3R)-3-(4-{4-[(4-{1-[6-(2-hydroxyphenyl)pyridazin-4-yl]-4-phenylpiperidine-4-carbonyl}piperazin-1-yl)methyl]piperidin-1-yl}phenyl)piperidine-2,6-dione]: the Dmax on SMARCA4 was found to be 31.5%. Further, at SMARCA2, the DC50 turned out to be 121 nM, the Dmax came out at 63.6% and the “Fold Selectivity SMARCA4/2” value is 82.86.

As to `O=C1CCC(c2ccc(N3CCC(CNC4CCN(C(=O)C5(c6ccccc6)CCN(c6cnnc(-c7ccccc7O)c6)CC5)CC4)CC3)cc2)C(=O)N1` (racemic) [Example 7, rac-(3R)-3-[4-(4-{[(1-{1-[6-(2-hydroxyphenyl)pyridazin-4-yl]-4-phenylpiperidine-4-carbonyl}piperidin-4-yl)amino]methyl}piperidin-1-yl)phenyl]piperidine-2,6-dione], the Dmax on SMARCA4 is 32%; at SMARCA2, 53.1%. The “Fold Selectivity SMARCA4/2” value at SMARCA2 stood at 1.

`O=C1CCC(c2ccc(OCC3CCN(CC4CCN(C(=O)C5(c6ccccc6)CCN(c6cnnc(-c7ccccc7O)c6)CC5)CC4)CC3)cc2)C(=O)N1` (racemic) [Example 11, rac-(3R)-3-[4-({1-[(1-{1-[6-(2-hydroxyphenyl)pyridazin-4-yl]-4-phenylpiperidine-4-carbonyl}piperidin-4-yl)methyl]piperidin-4-yl}methoxy)phenyl]piperidine-2,6-dione] came in with a Dmax on SMARCA4 of 38.9%. On SMARCA2, the DC50 stood at 21.2 nM, the Dmax was 69.1% and the “Fold Selectivity SMARCA4/2” value came to 472.68.

`O=C1CCC(c2ccc(OC3CCN(CC4CCN(C(=O)C5(c6ccccc6)CCN(c6cnnc(-c7ccccc7O)c6)CC5)CC4)CC3)cc2)C(=O)N1` (racemic) [Example 12, rac-(3R)-3-[4-({1-[(1-{1-[6-(2-hydroxyphenyl)pyridazin-4-yl]-4-phenylpiperidine-4-carbonyl}piperidin-4-yl)methyl]piperidin-4-yl}oxy)phenyl]piperidine-2,6-dione] came in with a Dmax on SMARCA4 of 36.9%. On SMARCA2, the DC50 is 144 nM, the Dmax amounted to 61.7% and the “Fold Selectivity SMARCA4/2” value is given as 69.67.

`O=C1CCC(c2ccc(OC3CCN(C(=O)C4CCN(C(=O)C5(c6ccccc6)CCN(c6cnnc(-c7ccccc7O)c6)CC5)CC4)CC3)cc2)C(=O)N1` (racemic) [Example 13, rac-(3R)-3-(4-{[1-(1-{1-[6-(2-hydroxyphenyl)pyridazin-4-yl]-4-phenylpiperidine-4-carbonyl}piperidine-4-carbonyl)piperidin-4-yl]oxy}phenyl)piperidine-2,6-dione]: the values for the Dmax on SMARCA4 and on SMARCA2 were 12.3% and 40.3%, respectively. The “Fold Selectivity SMARCA4/2” value at SMARCA2 is 1.

For `O=C1CCC(c2ccc(OCC3CCN(C(=O)C4CCN(C(=O)C5(c6ccccc6)CCN(c6cnnc(-c7ccccc7O)c6)CC5)CC4)CC3)cc2)C(=O)N1` (racemic) [Example 14, rac-(3R)-3-(4-{[1-(1-{1-[6-(2-hydroxyphenyl)pyridazin-4-yl]-4-phenylpiperidine-4-carbonyl}piperidine-4-carbonyl)piperidin-4-yl]methoxy}phenyl)piperidine-2,6-dione], the Dmax on SMARCA4 is 15.2%. Further, at SMARCA2, the Dmax was found to be 22.2% and the “Fold Selectivity SMARCA4/2” value stood at 1.
